Patent US20250114363A1, “PHARMACEUTICAL COMPOSITION COMPRISING ALLOPURINOL, FEBUXOSTAT, OR A PHARMACEUTICALLY ACCEPTABLE SALT THEREOF FOR PREVENTING OR TREATING CARDIOVASCULAR DISEASE OF SUBJECT HAVING HIGH SERUM URIC ACID LEVEL” (Indream Healthcare Inc., priority 2022, published 2025)

How the values were obtained:
Type in all cases: in vivo, human
[1] = test system: patients with gout and a history of major cardiovascular diseases; experiment: Clinical trial analysis: risk of major cardiovascular events by serum uric acid concentration (<6 vs >=6) per patient group; conditions: for increase in risk of occurrence of major cardiovascular events (hazard ratio): serum uric acid maintained at or above 6 vs below 6
Method: (§1) A multicenter, randomized, double-blind non-inferiority trial was performed. The details of the clinical trial design have been published previously. An independent data and safety monitoring committee with access to unblinded data monitored the clinical trial. The statistical analysis for the data and the safety monitoring committee was performed by an independent statistical group (WebbWrites).
(§2) The patients were regarded as having a history of major cardiovascular diseases, if they had myocardial infarction, hospitalization for unstable angina, stroke, hospitalization for transient ischemic attack, peripheral vascular disease, or diabetes mellitus symptoms. All participants provided a prior informed consent form.
The patients were randomly assigned so that they received febuxostat or allopurinol administered once a day in a double-blind manner. The randomization was stratified according to the estimated creatinine clearance at baseline (patient group having an estimated creatinine clearance ≥60 ml per minute vs patient group having an estimated creatinine clearance ≥30 and <60 ml per minute).
The dose of allopurinol was modified according to a kidney function. The patients with the estimated creatinine clearance 60 ml or more per minute i) initially received allopurinol at a dose of 300 mg once a day, and the dose was increased in 100 mg increments monthly until the patient had the serum uric acid concentration of less than 6.0 mg per deciliter or the dosage of allopurinol was 600 mg once a day. The patient having the estimated creatinine clearance of 30 ml or more and less than 60 ml per minute initially received 200 mg of allopurinol, and then the dose was increased in 100 mg increments until the patient either had the serum uric acid concentration of less than 6.0 mg per deciliter or was receiving the allopurinol dose of 400 mg once daily.
The dose of febuxostat was not modified according to the kidney function. The patients who were randomly assigned to receive febuxostat initially received 40 mg once a daily, and continued to receive the same dosage if the serum uric acid concentration was less than 6.0 mg per deciliter after 2 weeks of the treatment. If the serum uric acid concentration was higher than 6.0 mg per deciliter at 2nd week visit, the dose of febuxostat was increased to 80 mg once daily for the remainder of the trial.

[2] = test system: patients with gout and a history of major cardiovascular diseases; experiment: Clinical trial: rate of gout flare; conditions: overall
Method: as §1, §2
All patients received prophylaxis for the first 6 months of the randomly assigned treatment.

[3] = test system: patients with gout and a history of major cardiovascular diseases; experiment: Clinical trial: proportion of patients reaching serum uric acid concentration targets; conditions: febuxostat group vs allopurinol group
Method: A multicenter, randomized, double-blind non-inferiority trial was performed. The details of the clinical trial design have been published previously. An independent data and safety monitoring committee with access to unblinded data monitored the clinical trial. The statistical analysis for the data and the safety monitoring committee was performed by an independent statistical group (WebbWrites). […] The patients were regarded as having a history of major cardiovascular diseases, if they had myocardial infarction, hospitalization for unstable angina, stroke, hospitalization for transient ischemic attack, peripheral vascular disease, or diabetes mellitus symptoms. All participants provided a prior informed consent form. The dose of allopurinol was modified according to a kidney function. […] The dose of febuxostat was not modified according to the kidney function. The patients who were randomly assigned to receive febuxostat initially received 40 mg once a daily, and continued to receive the same dosage if the serum uric acid concentration was less than 6.0 mg per deciliter after 2 weeks of the treatment. […] During the period, the administration of a double-blind and double-dummy trial medications was guided by an interactive voice-response system which was a procedure to prevent unblinding for the patients whose dose was not adjusted. After completing dose adjustment, the urate level was concealed from the investigators, and the treatment was managed throughout the trial using the interactive voice-response system. […] The patients with reduced kidney function or, the patients aged 65 years or older at randomization were visited at 9 and 15 months for monitoring the serum chemical profile. If the patient agreed to be monitored, but would not return for study visit, telephone contact was made, but such method was not preferred or recommended.

SMILES	effect on cardiovascular disease when serum uric acid concentration is maintained below 6 ([1]; allopurinol: aged 65 years or older or BMI 30 kg/m^2 or less)	increase in risk of occurrence of major cardiovascular events (hazard ratio) ([1]; patient group aged 65 years or older)	increase in risk of occurrence of major cardiovascular events (hazard ratio) ([1]; patient group with BMI of 30 kg/m^2 or less)	rate of gout flare [2] [per patient-year]	proportion of patients with maintenance of serum uric acid concentration at less than 6.0 mg per deciliter ([3]; after 2nd week, at most times, difference not large)	proportion of patients with serum uric acid concentration of less than 6.0 mg per deciliter ([3]; at the 2nd week)	proportion of patients with serum uric acid concentration of less than 5.0 mg per deciliter ([3]; entire trial)	effect on cardiovascular disease when serum uric acid concentration is maintained below 6 ([1]; febuxostat: aged 65 or older, glucose 126 mg/dl or more, LDL-cholesterol 100 mg/dl or less, DBP 80 or lower, or stroke or peripheral vascular disease history)
O=c1ncnc2[nH][nH]cc1-2 [allopurinol]	effectively prevented or treated	about 1.68 times	about 1.78 times	0.63	–	–	–	–
Cc1nc(-c2ccc(OCC(C)C)c(C#N)c2)sc1C(=O)O [febuxostat]	–	–	–	0.68	higher proportion	higher	larger proportion	prevented or treated
